Measurements reported in US20140213575A1, “6H-Thieno[3,2-f][1,2,4]triazolo[4,3-a][1,4]diazepines” (BAYER INTELLECTUAL PROPERTY GMBH, priority 2011, published 2014).

How the values were obtained:
[1] = tested on: plasma proteins; experiment: Plasma protein binding by equilibrium dialysis; format: in vitro ADME, mouse; settings: for fu: free fraction of the species investigated (mouse), as used in Table 6; for fraction unbound: mouse, plasma, free (unbound) fraction, equilibrium dialysis, read-out: Protein binding, given as % fu
Procedure: The binding of test substances to plasma proteins is determined by equilibrium dialysis by means of the Ht-dialysis apparatus (96-well) made of Teflon and a semipermeable membrane (regenerated cellulose, MWCO 12-14K). This separates 150 μl of each of a plasma side and a buffer side (50 mM phosphate buffer). The test substance is added in 2 concentrations (usually 3 and 0.3 μM) to the plasma side and binds to plasma proteins. The unbound fraction of the test substance passes through the membrane and is distributed on either side until equilibrium is established (after approx. 6-8 h at 37° C.). The substance concentration on the buffer side and the plasma side is determined by LC-MS analysis. For this, both sides are brought by dilution with buffer or plasma to the same matrix (10% plasma) and then precipitated with methanol. The free (unbound) fraction (fu) is calculated from the quotient of the buffer and plasma concentration. Stability tests and recovery tests are run concurrently as controls. In addition, the substance in buffer is dialysed against buffer, to check the nonspecific binding to apparatus and membrane and establishment of equilibrium. Because during incubation the osmotic pressure of the plasma proteins leads to dilution of the plasma (volume shift), this possible error is determined by weighing blank plasma samples and is included in the calculation of fu. Establishment of equilibrium and plasma stability should have a value not lower than 80% and the recovery should be at least 30%. A free fraction of <1% is regarded as high, between 1 and 10% as moderate and >10% as low plasma protein binding.

[2] = target: T1, BRD4(1) (Homo sapiens, UniProt O60885); experiment: Binding assay BRD4/acetylated peptide H4 (TR-FRET/HTRF protein-protein interaction assay); settings: inhibition of interaction BRD4(1) / acetylated histone H4 peptide, TR-FRET
T1 construct: BRD4(1) (amino acids 44-168); made in house; host or cells: E. coli
Text: Binding Assay BRD4/Acetylated Peptide H4 (“PRQ”)
To assess the BRD4 binding strength of the substances described in this application, their capacity for dose-dependent inhibition of the interaction between BRD4 and acetylated histone H4 was quantified.
For this purpose, a time-resolved fluorescence resonance energy transfer (TR-FRET) assay was used, which measures the binding between N-terminally His6-tagged BRD4(1) (amino acids 44-168) and a synthetic acetylated histone H4 (Ac-H4) peptide with the sequence GRGK(Ac)GGK(Ac)GLGK(Ac)GGAK(Ac)RHGSGSK-biotin. The recombinant BRD4 protein (produced in-house) was expressed in E. coli and was purified by (Ni-NTA) affinity chromatography and (Sephadex G-75) size-exclusion chromatography. The Ac-H4 peptide can be purchased for example from Biosyntan (Berlin, Germany).
In the assay, typically 11 different concentrations of each substance (0.1 nM, 0.33 nM, 1.1 nM, 3.8 nM, 13 nM, 44 nM, 0.15 μM, 0.51 μM, 1.7 μM, 5.9 μM and 20 μM) were measured as duplicates on the same microtitre plate. For this, 100-fold concentrated solutions in DMSO were prepared by serial dilutions (1:3.4) of a 2 mM stock solution in a clear, 384-well microtitre plate (Greiner Bio-One, Frickenhausen, Germany). From this, 50 nl was transferred to a black assay plate (Greiner Bio-One, Frickenhausen, Germany). The assay was started by supplying 2 μl of a 2.5-fold concentrated BRD4 solution (usually 10 to 50 nM final concentration in the 5 μl of the reaction volume) in aqueous assay buffer [50 mM HEPES pH 7.5, 50 mM sodium chloride (NaCl), 0.25 mM CHAPS and 0.05% serum albumin (BSA)] to the substances in the assay plate. This was followed by a 10-minute incubation step at 22° C. for the pre-equilibration of putative complexes between BRD4 and the substances.
The mixture was then incubated in the dark for one hour at 22° C. and then overnight at 4° C. The formation of BRD4/Ac-H4 complexes was determined by measuring the resonance energy transfer from the streptavidin-Eu-cryptate to the anti-6His-XL665 antibody that is present in the reaction. For this, the fluorescence emissions at 620 nm and 665 nm were measured after excitation at 330-350 nm in a TR-FRET measuring instrument, e.g. a Rubystar or Pherastar (both from BMG Lab Technologies, Offenburg, Germany) or a Viewlux (Perkin-Elmer). The ratio of the emissions at 665 nm and at […] was taken as an indicator of the amount of BRD4/Ac-H4 complexes formed.
The data obtained (ratio) were normalized, wherein 0% inhibition corresponded to the mean value from the measured values of a set of controls (usually 32 data points), in which all reagents were contained. 50 nl DMSO (100%) was used instead of test substances. Inhibition of 100% corresponded to the mean value from the measured values of a set of controls (usually 32 data points), in which all reagents except BRD4 were contained. The IC50 value was determined by regression analysis based on a 4-parameter equation (minimum, maximum, IC50, Hill; Y=Max+(Min−Max)/(1+(X/IC50)^Hill)) using Bayer's own analysis software.

[3] = B16F10 melanoma tumour model; settings: C57BL/6, mouse, in vivo, po
Procedure: (§1) C57BL/6 mice were inoculated on day 0 with 0.5×10^6 cells in 0.1 ml medium, subcutaneously, in the right flank. […] The substances were administered orally for 10 days (day 2 to day 11). […] Practical example 2 was applied at a dose of 160 or 120 mg/kg.

[4] = tested on: B16F10 melanoma; experiment: B16F10 melanoma tumour model
Procedure: as §1

SMILES	fu [1]	fraction unbound [1]	IC50 [2]	MTD at 10 days [3]	T/C value ([4]; 120 mg/kg (MTD), oral, day 2 to day 11)	weight loss ([4]; 120 mg/kg dose, oral, day 2 to day 11)	weight loss ([4]; 160 mg/kg dose, oral, day 2 to day 11)	mice killed because of weight loss above 20% ([4]; group treated with 70 mg/kg, day 10)
Cc1sc2c(c1C)C(c1ccc(Cl)cc1)=N[C@@H](CC(=O)N1C3CCC1CC(=O)C3)c1nnc(C)n1-2 [Example 1, 8-{2-[(S)-4-(4-Chlorophenyl)-2,3,9-trimethyl-6H-thieno[3,2-f][1,2,4]triazolo[4,3-a][1,4]diazepin-6-yl]acetyl}-8-azabicyclo[3.2.1]octan-3-one]	12%	0.12	28 nM	–	–	–	–	–
Cc1sc2c(c1C)C(c1ccc(Cl)cc1)=N[C@@H](CC(=O)N1CC3(COC3)C1)c1nnc(C)n1-2 [Example 2, 2-[(S)-4-(4-Chlorophenyl)-2,3,9-trimethyl-6H-thieno[3,2-f][1,2,4]triazolo[4,3-a][1,4]diazepin-6-yl]-1-(2-oxa-6-azaspiro[3.3]hept-6-yl)ethan-1-one]	25%	0.25	27 nM	120 mg/kg	27%	2%	5%	one mouse
